Test systems include HOP-92; UACC-257; OVCAR-8; SK-OV-3; NCI/ADR-RES; DU-145; RXF 393; PC-3; UO-31; COLO 205; SW-620; EKVX; T47D; MDA-MB-231; NCI-H23; NCI-H226; SK-MEL-2; Malme-3M; SK-MEL-28; SR.
Experiment in all cases: NCI-60 cell line screen, 48 h

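Compound exposure: 48 hours, 5 concentrations, 96-well plates. GI50: concentration for 50% inhibition of growth.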 The source made the active and inactive calls. Rule as the data show it: active = GI50 up to about 1.1 µM and inactive = higher. A value given as a limit tells only on which side of the number the result lay.

As for `Nc1nc(N)c2cc(Sc3ccc4ccccc4c3)ccc2n1`, the GI50 in the experiment on HOP-92 was 1.14 µM (inactive); with UACC-257, 1.58 µM (inactive); in the experiment with OVCAR-8 it was 1 µM (active); with SK-OV-3, 13.8 µM (inactive); with NCI/ADR-RES it was 1.07 µM (active); in the experiment with DU-145, 5.79 µM (inactive). Also, the GI50 in the experiment on RXF 393 is 3.32 µM (inactive); with PC-3 it was 1.87 µM (inactive); in the experiment with UO-31, 2.76 µM (inactive); with COLO 205, 1.63 µM (inactive); with SW-620, 0.729 µM (active); in the experiment with EKVX it was 2.96 µM (inactive). Also, the GI50 is 2.12 µM (inactive) with T47D, 2.54 µM (inactive) in the experiment on MDA-MB-231, 5.82 µM (inactive) with NCI-H23 and 10.7 µM (inactive) in the experiment with NCI-H226.

For the compound `c1ccc2c(c1)C(=Nc1ccc(N=C3c4ccccc4-c4ccccc43)cc1)c1ccccc1-2`, the GI50 in the experiment on HOP-92, in the experiment on UACC-257, with OVCAR-8, with SK-OV-3, in the experiment with NCI/ADR-RES and in the experiment with DU-145 was > 100 µM (inactive) throughout. Also, the GI50 with RXF 393, with PC-3, with UO-31, with COLO 205, in the experiment on SW-620 and in the experiment with SK-MEL-2 was > 100 µM (inactive) in each case. Further, the GI50 in the experiment on EKVX, with T47D, in the experiment with MDA-MB-231, in the experiment on NCI-H23, in the experiment with NCI-H226 and in the experiment with Malme-3M was > 100 µM (inactive) each time.

Take `COc1ccc(C2SC(=N)Nc3c2c(C)nn3C(=O)c2ccccc2O)cc1` (stereo not drawn): the GI50 in the experiment on HOP-92 was > 10 µM (inactive); in the experiment on UACC-257 it was 2.81 µM (inactive); in the experiment on OVCAR-8 it was 0.998 µM (active); in the experiment with SK-OV-3, 5.32 µM (inactive); in the experiment with NCI/ADR-RES it was 2.12 µM (inactive); in the experiment with RXF 393, 0.532 µM (active). Also, the GI50 with PC-3 was 3.81 µM (inactive); in the experiment with COLO 205 it was 8.87 µM (inactive); in the experiment with SW-620 it was 5.47 µM (inactive); in the experiment on SK-MEL-2, 2.57 µM (inactive); in the experiment on EKVX, 7.38 µM (inactive); in the experiment with T47D, 8.99 µM (inactive). Besides, the GI50 was 0.986 µM (active) with MDA-MB-231; 0.933 µM (active) in the experiment with NCI-H23; 0.904 µM (active) in the experiment with NCI-H226; 0.659 µM (active) in the experiment with Malme-3M; > 10 µM (inactive) in the experiment with SK-MEL-28.

With `CC1=C(C)C(=O)OC(C(C)(O)C2(O)CCC3(O)C4CC(Cl)C5(O)C(O)C=CC(=O)C5(C)C4CCC32C)C1` (stereo not drawn), the GI50 in the experiment with HOP-92 was > 100 µM (inactive); in the experiment on UACC-257, 37.2 µM (inactive); in the experiment on OVCAR-8, 25.1 µM (inactive); in the experiment with SK-OV-3, 41.6 µM (inactive); with DU-145, > 100 µM (inactive); in the experiment with RXF 393, 18.5 µM (inactive). For the same compound, the GI50 was 48.1 µM (inactive) in the experiment on PC-3; 15.6 µM (inactive) in the experiment with UO-31; 12.9 µM (inactive) in the experiment with COLO 205; 21.3 µM (inactive) in the experiment on SW-620; > 100 µM (inactive) in the experiment on SK-MEL-2; 53.7 µM (inactive) with EKVX. For the same compound, the GI50 in the experiment with T47D is > 100 µM (inactive); in the experiment with MDA-MB-231, 30.2 µM (inactive); in the experiment with NCI-H23 it was 64.7 µM (inactive); in the experiment with NCI-H226, > 100 µM (inactive); in the experiment with Malme-3M, > 100 µM (inactive); in the experiment with SR, 8.51 µM (inactive). Besides, the GI50 in the experiment with SK-MEL-28 was 49 µM (inactive).

As for `CC(C)=NN/C(=N\c1ccc(Cl)cc1)NS(=O)(=O)c1ccc(Oc2cccc(Cl)c2C#N)cc1`, the GI50 in the experiment on HOP-92, with UACC-257, with OVCAR-8, in the experiment on NCI/ADR-RES, in the experiment with DU-145 and in the experiment with PC-3 was > 100 µM (inactive) each time. The GI50 in the experiment on UO-31, in the experiment with COLO 205, in the experiment on SW-620, in the experiment on SK-MEL-2, in the experiment with EKVX and in the experiment with T47D was > 100 µM (inactive) throughout. In addition, the GI50 in the experiment with MDA-MB-231, with NCI-H23, with NCI-H226, in the experiment with Malme-3M and in the experiment on SK-MEL-28 was > 100 µM (inactive) throughout.

As to `COc1cc(/C=C2\CC3C4CC=C5C[C@@H](O)CC[C@]5(C)C4CC[C@]3(C)\C2=N\O)cc(OC)c1OC` (stereo partly drawn), the GI50 with HOP-92 is 14.3 µM (inactive); in the experiment on UACC-257 it was 9.91 µM (inactive); with OVCAR-8, 8.45 µM (inactive); in the experiment on SK-OV-3, 23.7 µM (inactive); with NCI/ADR-RES it was 7.6 µM (inactive); in the experiment on DU-145, 12.9 µM (inactive). In addition, the GI50 in the experiment on RXF 393 was 3.61 µM (inactive); in the experiment on PC-3 it was 4.28 µM (inactive); in the experiment on UO-31, 2.28 µM (inactive); in the experiment with COLO 205 it was 3.73 µM (inactive); in the experiment on SW-620, 16.7 µM (inactive); with SK-MEL-2, 4.07 µM (inactive). Moreover, the GI50 was 6.04 µM (inactive) with EKVX; 2.72 µM (inactive) in the experiment with T47D; 7.31 µM (inactive) in the experiment on MDA-MB-231; 7.16 µM (inactive) in the experiment with NCI-H23; 7.96 µM (inactive) in the experiment on NCI-H226; 9.35 µM (inactive) with Malme-3M. Moreover, the GI50 in the experiment with SK-MEL-28 was 14.2 µM (inactive).

Consider `Oc1ccc(Br)cc1/C=N/C1CCCCC1`, for which the GI50 in the experiment with HOP-92 was 72.1 µM (inactive); with UACC-257, 47.2 µM (inactive); in the experiment on OVCAR-8, 20.5 µM (inactive); with SK-OV-3 it was 55.3 µM (inactive); with NCI/ADR-RES it was 38.7 µM (inactive); in the experiment with DU-145 it was 21.4 µM (inactive). Further, the GI50 in the experiment with RXF 393 was > 100 µM (inactive); with PC-3 it was 15.2 µM (inactive); with UO-31, 33.8 µM (inactive); in the experiment with COLO 205, 65.5 µM (inactive); with SW-620, 24.8 µM (inactive); with SK-MEL-2, 25.1 µM (inactive). For the same compound, the GI50 with EKVX was > 100 µM (inactive); in the experiment on T47D it was 4.12 µM (inactive); in the experiment on MDA-MB-231, 36.3 µM (inactive); with NCI-H23 it was 34.4 µM (inactive); with Malme-3M, 27.6 µM (inactive); in the experiment with SK-MEL-28 it was 43.3 µM (inactive).

With `COc1ccc(OC(=O)N2C/C(=C\c3ccccc3)C(=O)/C(=C/c3ccccc3)C2)cc1`, the GI50 is 19.1 µM (inactive) with HOP-92; 3.74 µM (inactive) in the experiment on UACC-257; 2.47 µM (inactive) in the experiment with OVCAR-8; 8.69 µM (inactive) in the experiment with SK-OV-3; 24.9 µM (inactive) in the experiment on DU-145; 2.58 µM (inactive) with RXF 393. In addition, the GI50 with PC-3 is 3.66 µM (inactive); with UO-31, 10.2 µM (inactive); with COLO 205, 7.74 µM (inactive); in the experiment with SW-620 it was 1.03 µM (active); with SK-MEL-2 it was 11.6 µM (inactive); in the experiment on EKVX, 16.6 µM (inactive). In addition, the GI50 was 16 µM (inactive) in the experiment with T47D; 3.21 µM (inactive) in the experiment on MDA-MB-231; 5.05 µM (inactive) in the experiment with NCI-H23; 10.1 µM (inactive) with NCI-H226; 11.1 µM (inactive) in the experiment with Malme-3M; 0.222 µM (active) in the experiment with SR. Besides, the GI50 in the experiment with SK-MEL-28 was 2.14 µM (inactive).

On to `CCN(CC)C(=S)SS(=O)(=O)c1ccc(Cl)cc1`, for which the GI50 in the experiment with HOP-92 is 16.9 µM (inactive); in the experiment with UACC-257, 24.2 µM (inactive); with OVCAR-8, 16.9 µM (inactive); with SK-OV-3 it was 64.3 µM (inactive); with NCI/ADR-RES it was 35.4 µM (inactive); in the experiment on DU-145 it was 27.3 µM (inactive). Also, the GI50 was 17.6 µM (inactive) in the experiment with RXF 393; 17.7 µM (inactive) in the experiment on UO-31; 26.5 µM (inactive) in the experiment with COLO 205; 17.1 µM (inactive) with SW-620; 65.6 µM (inactive) in the experiment on SK-MEL-2; > 100 µM (inactive) in the experiment on EKVX. The GI50 in the experiment on T47D is 46.2 µM (inactive); in the experiment on MDA-MB-231, 34.9 µM (inactive); in the experiment with NCI-H23, 38.5 µM (inactive); with NCI-H226, 62.7 µM (inactive); in the experiment on Malme-3M, 11.7 µM (inactive); in the experiment on SR, 0.0796 µM (active). For the same compound, the GI50 with SK-MEL-28 is 17.9 µM (inactive).

On to `COC(=O)c1ccccc1/C=C1\Cc2c(ccc3c2CCC3)C1=O`, for which the GI50 in the experiment with HOP-92 is 85.9 µM (inactive); with UACC-257, > 100 µM (inactive); in the experiment on OVCAR-8, 78.9 µM (inactive); in the experiment with NCI/ADR-RES, > 100 µM (inactive); in the experiment on DU-145, > 100 µM (inactive); in the experiment with RXF 393, > 100 µM (inactive). The GI50 in the experiment with PC-3 is > 100 µM (inactive); with UO-31 it was > 100 µM (inactive); in the experiment on COLO 205, > 100 µM (inactive); with SW-620, > 100 µM (inactive); with SK-MEL-2 it was 56 µM (inactive); with EKVX, > 100 µM (inactive). The GI50 in the experiment with T47D, in the experiment with NCI-H23, with NCI-H226, in the experiment with Malme-3M, with SR and in the experiment with SK-MEL-28 was > 100 µM (inactive) throughout.

Consider `CCc1n[nH]c(=O)n1N1C(=O)C2CC=CCC2C1=O` (stereo not drawn), for which the GI50 in the experiment on HOP-92, in the experiment with UACC-257, with OVCAR-8, in the experiment on SK-OV-3, in the experiment with NCI/ADR-RES and in the experiment with RXF 393 was > 100 µM (inactive) throughout. Moreover, the GI50 in the experiment with PC-3, in the experiment with UO-31, in the experiment on COLO 205, in the experiment with SW-620, in the experiment on SK-MEL-2 and in the experiment on EKVX was > 100 µM (inactive) in each case. Moreover, the GI50 in the experiment on T47D, in the experiment with MDA-MB-231, in the experiment with NCI-H23, with NCI-H226, in the experiment with Malme-3M and in the experiment on SR was > 100 µM (inactive) in each case.

For the origin of these results see ChEMBL document CHEMBL1201862, “PubChem BioAssay data set” (2004).
